Patent US20240245707A1, “COMPOSITIONS FOR TREATING INSOMNIA AND USES THEREOF” (Zhejiang Jiachi Development Pharmaceuticals LTD., priority 2021, published 2024)
Several values for one entry are separate records, joined by “and”; a condition that tells them apart may be missing. Equal values may be shown once. Entries after “also recorded” stand apart in the source; their conditions may differ.

Experiments:
[1] = tested on: postmenopausal women with chronic insomnia; experiment: Phase II clinical trial of α-anordrin enteric-coated tablets, Athens Insomnia Scale (AIS) index, preliminary results; type: in vivo, human
Method: This Phase II clinical trial uses a randomized, double-blind, parallel-controlled design and is conducted in three clinical trial centers. A total of three drug groups are pre-set which are a) the 0.05 mg/day dosing group, b) the 0.1 mg/day dosing group, and c) the 0.15 mg/day dosing group as well as the placebo group. The drug intervention period is 8 weeks, and the drug intervention is followed up for 4 weeks. Primary efficacy endpoint includes vaginal detachment cell maturity index and dryness in postmenopausal women. Secondary efficacy endpoint includes quality in postmenopausal women, vaginal microecological index, vaginal pH in postmenopausal women, as well as the safety endpoint. The effectiveness and safety of different doses of α-anordrin tablets are preliminarily evaluated.
Group 1 (0.05 mg dose group): daily oral administration of one 0.05 mg α-anordrin enteric-coated tablet. Group 2 (0.1 mg dose group): daily oral administration of one 0.1 mg α-anordrin enteric-coated tablet. Group 3 (0.15 mg dose group): daily oral administration of one 0.15 mg α-anordrin enteric-coated tablet. Group 4: placebo group. […]

[2] = tested on: rat primary neuronal cells; experiment: ATP level of neuronal cells treated with anordrin (ATP assay kit); type: cell-based; conditions: 10 nM anordrin, 24 hours, vs vehicle; FIG. 5
Method: See Chikahisa et al., Front Neurol. 2011; 2: 87.
Materials and equipment include cell culture medium, FBS and Charcoal stripped FBS, ATP assay kit (Thermofisher) and rat primary neuronal cells (Wuhan servisebio).
Primary neuronal cells (2×10^6) were grew in medium containing 10% FBS in 6 well plates for 24 hours. Then the medium was replaced with phenol red free medium contain 5% Charcoal stripped FBS for 24 hours. 10 nM anordrin or vechile were added in medium for 24 hours, and then cells were harvested. The fluorescence density of ATP was assayed using ATP assay kit following manufacture's instruction.

[3] = tested on: postmenopausal women having insomnia; experiment: Self-assessment of insomnia with Athens Insomnia Scale (AIS) before and after taking anordrin; type: in vivo, human
Method: Insomnia is usually measured using sleep disorder questionnaire (SDQ) such as Pittsburgh sleep quality index (PSQI), Epworth Sleeping Scale or the Athens Insomnia Scale (AIS), or using sleep quality monitor to count sleep dysfunction rating scale (SDRS). AIS is the one of popularly used SEQ. It is measured by assessing eight factors amongst which first five factors are related to nocturnal sleep and last three factors are related to daytime dysfunction. These are rated on a 0-3 scale and the sleep is finally evaluated from the cumulative score of all factors and reported as an individual's sleep outcome. Over the period of time, AIS is considered to be an effective tool in sleep analysis, and it is validated in various countries by testing it on local patients. A cut-off score of at least 6 on the AIS is used to establish the diagnosis of insomnia. See Soldatos C R, Dikeos D G, Paparrigopoulos T J (2002). “The diagnostic validity of the Athens Insomnia Scale”. J Psychosom Res. 55 (3): 263-7.
Individuals who have taken anordrin (less than 1 mg) were self-assessed for the presence and the extent of insomnia before and after they took anordrin. Specifically, thirteen postmenopausal women took anordrin for about two weeks to a few months. Their sleep quality were evaluated with Athens Insomnia Scale (AIS).

C#C[C@@]1(OC(=O)CC)C[C@@H]2CC[C@@H]3[C@H](CC[C@@]4(C)[C@H]3CC[C@]4(C#C)OC(=O)CC)[C@@]2(C)C1 [anordrin, 2α, 17α-diethynyl-A-nor-5α-androstane-2β,17β-diol dipropionate]
AIS number (after treatment) ([1]; one patient per row, 0.05 mg/day oral, before treatment 12-19, preliminary results): 4 and 5 (2×) | sleeping quality after treatment (in words) ([1]; three patients, 0.05 mg/day): significantly improved sleeping quality | ATP level of neuronal cells [2]: significantly increased; also recorded: induces ATP surge | decrease of the average number of AIS ([3]; after vs before treatment, thirteen postmenopausal women): 63% | postmenopausal women having insomnia that exhibited a significant improvement in sleeping ([3]; anordrin at various dosages, Example 1): 100% | numbers of AIS for each patient after treatment (in words) ([3]; thirteen postmenopausal women, FIG. 3 and Table 1): significantly decreased | Average # of AIS after treatment ([3]; thirteen postmenopausal women, average before treatment 17.4, STDEV 1.2, p value <0.0001): 6.3
